The values below come from article PMC8421406, “C9orf72-derived arginine-rich poly-dipeptides impede phase modifiers” (Nature Communications, 2021).

Assay [1] concerns GFP:hnRNPA2-LC / mCh:hnRNPA2-LC hydrogel. As to the kind of experiment: Hydrogel binding assay, hnRNPA2-LC. Type of assay: biochemical. The conditions noted are these: 1.0 µM GFP:hnRNPA2-LC, Kapβ2 1.0 µM, PR20 1.0 µM. The source says:
(§1) Expression plasmids for recombinant proteins (GFP/mCherry fusion LC-domain of FUS (residue 2–214, GFP/mCh:FUS-LC) and GFP/mCherry fusion LC-domain of hnRNPA2 (residue 181–341, GFP/mCh:hnRNPA2-LC)) were obtained from the Steven L. McKnight Laboratory. Expression plasmid for GFP:FUS-LC fusion NLS (residue 501–526, GFP:FUS-LC:NLS), mCh fusion LC-domain of TDP43 (residue 262–414, mCh:TDP43-LC), and GFP-tagged cNLS (residue 78–99) fusion TDP43-LC (GFP:cNLS:TDP43-LC) were constructed using In-Fusion HD Cloning Kit (Takara Bio, Inc.). GFP/mCh:FUS-LC, GFP:FUS-LC:NLS, and GFP/mCh:hnRNPA2-LC were expressed in E. coli BL21(DE3) cells with 0.5 mM IPTG at 20 °C overnight and purified by Ni-NTA Agarose (FUJIFILM Wako Pure Chemical Corporation), as described in a previous study. GFP:cNLS:TDP43-LC were expressed with 1.0 mM IPTG at 37 °C for 3 h and mCh:TDP43-LC were expressed with 0.5 mM IPTG at 16 °C overnight. GFP:cNLS:TDP43-LC and mCh:TDP43-LC were purified by Ni-NTA as described in a previous study[48] with some modifications. […] Relative intensity of GFP signals across the hydrogel droplets were measured in triplicate by using the profile plot mode in ImageJ. […]

The subject of assay [2] is GFP:cNLS:TDP43-LC / mCh:TDP43-LC hydrogel. As to the kind of experiment: Hydrogel binding assay, TDP43-LC with Impα/β1. Type of assay: biochemical. The conditions noted are these: 1.0 µM GFP:cNLS:TDP43-LC, Impα/β1 1.0 µM/1.0 µM, PR20 1.0 µM.
Excerpt: as §1

Where no end group is shown, it is not given here. HA = HA epitope tag

With “PR20: twenty repeats of proline:arginine with an HA epitope tag at the C terminus, synthesized by SCRUM, Inc. (PRPRPRPRPRPRPRPRPRPRPRPRPRPRPRPRPRPRPRPR-{HA})”, the “Effect on ability of Kapβ2 to block hydrogel binding of hnRNPA2-LC” value in assay [1] is given as “inhibited the ability of Kapβ2”. For the same substance, in assay [2], the “Effect on ability of Impα/β1 to modify phase transition of TDP43-LC” value is given as “inhibited the ability of other NIRs Impα/β1 in modifying the phase transition of LC-domain of TDP43”.
